The assay has as its target recombinant full-length human hydroxyacid oxidase 1 (HAO1), the equivalents of hGOX (Homo sapiens (Human), UniProt Q9UJM8). Description: In-vitro human glycolate oxidase (hGOX) assay (Amplex red fluorescence). It is filed as biochemical. Particulars: 6 nM recombinant human GO, 85 μM glycolate, 10 min preincubation. How it is done:
The in-vitro glycolate oxidase assay was performed using recombinant full-length human hydroxyacid oxidase 1 (HAO1), the equivalents of hGOX. […] Purified HAO1 was dissolved in assay buffer consisting of 10 mM NaCl, 110 mM KCl, 2 mM MgCl2, 50 mM HEPES (pH 7.4), and 0.01% Triton™ X-100.
The plates were incubated for 10 min at room temperature, at which point Amplex red reagent (50 μM) was added.
The fluorescence intensity signal was measured on a VariosKan LUX instrument using an excitation of 560 nm and an emission of 590 nm. The IC50 values were calculated using Graphpad Prism. The fluorescence signal of wells containing only DMSO was defined as 100% GO activity, while the fluorescence signal without the glycolate substrate was defined as 0% GO activity.
recombinant full-length human hydroxyacid oxidase 1 (HAO1), the equivalents of hGOX, sequence (Q9UJM8 whole entry): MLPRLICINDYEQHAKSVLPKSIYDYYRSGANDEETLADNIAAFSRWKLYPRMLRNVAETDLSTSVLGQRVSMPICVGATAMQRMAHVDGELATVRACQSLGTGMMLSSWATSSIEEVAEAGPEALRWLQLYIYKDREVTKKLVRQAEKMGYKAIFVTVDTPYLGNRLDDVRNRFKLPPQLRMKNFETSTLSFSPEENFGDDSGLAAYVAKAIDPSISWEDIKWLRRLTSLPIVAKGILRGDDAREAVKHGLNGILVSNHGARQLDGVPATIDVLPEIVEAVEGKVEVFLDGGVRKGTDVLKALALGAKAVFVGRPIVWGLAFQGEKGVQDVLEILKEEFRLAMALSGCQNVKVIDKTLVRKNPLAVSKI
With `O=C(O)c1nn[nH]c1Oc1cccc(C#Cc2ccc3cn[nH]c3c2)c1` [Example 330, 5-(3-(2-(1H-Indazol-6-yl)ethynyl)phenoxy)-1H-1,2,3-triazole-4-carboxylic Acid], the IC50 worked out at 0.001 µM.
Consider `O=C(O)c1nn[nH]c1Oc1ccc(C#Cc2ncc[nH]2)cc1` [Example 331, 5-(4-(2-(1H-Imidazol-2-yl)ethynyl)phenoxy)-1H-1,2,3-triazole-4-carboxylic Acid], for which the 50% inhibitory concentration (IC50) is 0.02 µM.
The result for `O=C(O)c1nn[nH]c1Oc1cccc(C#Cc2ncc[nH]2)c1` [Example 332, 5-(3-(2-(1H-Imidazol-2-yl)ethynyl)phenoxy)-1H-1,2,3-triazole-4-carboxylic Acid] reads 0.007 µM; that for `Cn1ccnc1C#Cc1ccc(Oc2[nH]nnc2C(=O)O)cc1` [Example 333, 5-(4-(2-(1-Methyl-1H-imidazol-2-yl)ethynyl)phenoxy)-1H-1,2,3-triazole-4-carboxylic Acid], 0.01 µM; that for `Cn1ccnc1C#Cc1cccc(Oc2[nH]nnc2C(=O)O)c1` [Example 334, 5-(3-(2-(1-Methyl-1H-imidazol-2-yl)ethynyl)phenoxy)-1H-1,2,3-triazole-4-carboxylic Acid], 0.005 µM.
For `O=C(O)c1nn[nH]c1Oc1ccc(C#CC(F)(F)F)cc1` [Example 335, 5-(4-(3,3,3-Trifluoroprop-1-ynyl)phenoxy)-1H-1,2,3-triazole-4-carboxylic Acid] the value was 0.023 µM.
For `O=C(O)c1nn[nH]c1Oc1ccc(C#Cc2ncccn2)cc1` [Example 336, 5-(4-(2-(Pyrimidin-2-yl)ethynyl)phenoxy)-1H-1,2,3-triazole-4-carboxylic Acid] the value was 0.025 µM; for `O=C(O)c1nn[nH]c1Oc1ccc(C#Cc2cnccn2)cc1` [Example 337, 5-(4-(2-(Pyrazin-2-yl)ethynyl)phenoxy)-1H-1,2,3-triazole-4-carboxylic Acid], 0.007 µM.
On to `O=C(O)c1nn[nH]c1Oc1cccc(C#Cc2cnccn2)c1` [Example 338, 5-(3-(2-(Pyrazin-2-yl)ethynyl)phenoxy)-1H-1,2,3-triazole-4-carboxylic Acid], for which the IC50 worked out at 0.004 µM.
Consider `O=C(O)c1nn[nH]c1Oc1ccc(C#Cc2cccnn2)cc1` [Example 339, 5-(4-(2-(Pyridazin-3-yl)ethynyl)phenoxy)-1H-1,2,3-triazole-4-carboxylic Acid], for which the IC50 came out at 0.004 µM.
Turning to `O=C(O)c1nn[nH]c1Oc1cccc(C#Cc2cccnn2)c1` [Example 340, 5-(3-(2-(Pyridazin-3-yl)ethynyl)phenoxy)-1H-1,2,3-triazole-4-carboxylic Acid], the IC50 was 0.003 µM.
The result for `O=C(O)c1nn[nH]c1Oc1ccc(C#Cc2nccs2)cc1` [Example 341, 5-(4-(2-(Thiazol-2-yl)ethynyl)phenoxy)-1H-1,2,3-triazole-4-carboxylic Acid] reads 0.028 µM.
The result for `O=C(O)c1nn[nH]c1Oc1ccc(C#CCc2ccccc2)cc1` [Example 348, 5-(4-(3-Phenylprop-1-ynyl)phenoxy)-1H-1,2,3-triazole-4-carboxylic Acid] reads 0.005 µM; that for `O=C(O)c1nn[nH]c1Oc1cccc(C#CCc2ccccc2)c1` [Example 349, 5-(3-(3-Phenylprop-1-ynyl)phenoxy)-1H-1,2,3-triazole-4-carboxylic Acid], 0.005 µM; that for `N#CCCC#Cc1cccc(Oc2[nH]nnc2C(=O)O)c1` [Example 350, 5-(3-(4-Cyanobut-1-ynyl)phenoxy)-1H-1,2,3-triazole-4-carboxylic Acid], 0.01 µM.
Consider `O=C(O)c1nn[nH]c1Oc1cccc(C#CC2CCC3(CC2)OCCO3)c1` [Example 351, 5-(3-(1,4-Dioxaspiro[4.5]decan-8-ylethynyl)phenoxy)-1H-1,2,3-triazole-4-carboxylic Acid], for which the IC50 amounted to 0.02 µM.
The result for `O=C1CCC(C#Cc2cccc(Oc3[nH]nnc3C(=O)O)c2)CC1` [Example 352, 5-(3-((4-Oxocyclohexyl)ethynyl)phenoxy)-1H-1,2,3-triazole-4-carboxylic Acid] reads 0.034 µM.
The result for `O=C(O)c1nn[nH]c1Oc1ccc(C#CCc2ccc(F)cc2)cc1` [Example 353, 5-(4-(3-(4-fluorophenyl)prop-1-ynyl)phenoxy)-1H-1,2,3-triazole-4-carboxylic Acid] reads 0.003 µM; that for `O=C(O)c1nn[nH]c1Sc1ccc(C#CCC2CC2)cc1` [Example 355, 5-(4-(3-Cyclopropylprop-1-ynyl)phenylthio)-1H-1,2,3-triazole-4-carboxylic Acid], 0.006 µM; that for `CCOC(=O)c1nn[nH]c1Oc1cccc(C#CCC2CC2)c1` [Example 357, Ethyl 5-(3-(3-cyclopropylprop-1-ynyl)phenoxy)-1H-1,2,3-triazole-4-carboxylate], > 1 µM.
For `CCOC(=O)c1c(Oc2cccc(C#CCC3CC3)c2)n[nH]c1C` [Example 358, Ethyl 3-(3-(3-cyclopropylprop-1-ynyl)phenoxy)-5-methyl-1H-pyrazole-4-carboxylate] the value was > 1 µM.
With `Cc1[nH]nc(Oc2cccc(C#CCC3CC3)c2)c1C(=O)O` [Example 359, 3-(3-(3-Cyclopropylprop-1-ynyl)phenoxy)-5-methyl-1H-pyrazole-4-carboxylic Acid], the concentration for half-maximal inhibition (IC50) is > 1 µM.
The result for `CCOC(=O)c1c(Oc2ccc(C#CCC3CC3)cc2)n[nH]c1C` [Example 360, Ethyl 3-(4-(3-cyclopropylprop-1-ynyl)phenoxy)-5-methyl-1H-pyrazole-4-carboxylate] reads > 1 µM.
Turning to `Cc1[nH]nc(Oc2ccc(C#CCC3CC3)cc2)c1C(=O)O` [Example 361, 3-(4-(3-Cyclopropylprop-1-ynyl)phenoxy)-5-methyl-1H-pyrazole-4-carboxylic Acid], the IC50 was > 1 µM.
For `O=C(O)c1nn[nH]c1Nc1ccc(C#CCC2CC2)cc1` [Example 362, 5-(4-(3-Cyclopropylprop-1-ynyl)phenylamino)-1H-1,2,3-triazole-4-carboxylic Acid], the IC50 came to 0.23 µM.
The result for `O=C(O)c1nn[nH]c1Nc1cccc(C#CCC2CC2)c1` [Example 363, 5-(3-(3-Cyclopropylprop-1-ynyl)phenylamino)-1H-1,2,3-triazole-4-carboxylic Acid] reads 0.11 µM; that for `O=C(O)c1nn[nH]c1Cc1ccc(C#CCC2CC2)cc1` [Example 364, 5-(4-(3-Cyclopropylprop-1-ynyl)benzyl)-1H-1,2,3-triazole-4-carboxylic Acid], 0.094 µM.
The result for `O=C(O)c1nn[nH]c1Cc1cccc(C#CCC2CC2)c1` [Example 365, 5-(3-(3-Cyclopropylprop-1-ynyl)benzyl)-1H-1,2,3-triazole-4-carboxylic Acid] reads 0.098 µM.
The result for `CCOC(=O)c1nn[nH]c1Oc1cccc(C#CCC(C)C)c1` [Example 366, Ethyl 5-(3-(4-methylpent-1-ynyl)phenoxy)-1H-1,2,3-triazole-4-carboxylate] reads > 1 µM; that for `O=C(O)c1nn[nH]c1Oc1cccc(C#CCC2CC(F)(F)C2)c1` [Example 367, 5-(3-(3-(3,3-Difluorocyclobutyl)prop-1-ynyl)phenoxy)-1H-1,2,3-triazole-4-carboxylic Acid], 0.009 µM; that for `Cn1cc(Oc2[nH]nnc2C(=O)O)cc(C#CCC2CC2)c1=O` [Example 368, 5-(5-(3-Cyclopropylprop-1-ynyl)-1,6-dihydro-1-methyl-6-oxopyridin-3-yloxy)-1H-1,2,3-triazole-4-carboxylic Acid], > 1 µM.
As for `O=C(O)c1nonc1Oc1ccc(C#CCC2CC2)cc1` [Example 369, 4-(4-(3-Cyclopropylprop-1-ynyl)phenoxy)-1,2,5-oxadiazole-3-carboxylic Acid], the IC50 was > 1 µM.
The result for `O=C(O)c1nonc1Oc1cccc(C#CCC2CC2)c1` [Example 370, 4-(3-(3-Cyclopropylprop-1-ynyl)phenoxy)-1,2,5-oxadiazole-3-carboxylic Acid] reads > 1 µM; that for `CCOC(=O)c1nn[nH]c1Oc1cccc(C#CCC(C)(C)C)c1` [Example 371, Ethyl 5-(3-(4,4-dimethylpent-1-ynyl)phenoxy)-1H-1,2,3-triazole-4-carboxylate], > 1 µM.
Take `CC(C)(C)CC#Cc1cccc(Oc2[nH]nnc2C(=O)O)c1` [Example 372, 5-(3-(4,4-Dimethylpent-1-ynyl)phenoxy)-1H-1,2,3-triazole-4-carboxylic Acid]: the IC50 is > 1 µM.
For `CCOC(=O)c1nn[nH]c1[S+]([O-])c1cccc(C#CCC(C)C)c1` (stereo not shown) [Example 373, Ethyl 5-(3-(4-methylpent-1-ynyl)phenylsulfinyl)-1H-1,2,3-triazole-4-carboxylate] the value was > 1 µM.
The result for `CC(C)CC#Cc1cccc([S+]([O-])c2[nH]nnc2C(=O)O)c1` (stereo not shown) [Example 374, 5-(3-(4-Methylpent-1-ynyl)phenylsulfinyl)-1H-1,2,3-triazole-4-carboxylic Acid] reads > 1 µM; that for `CCOC(=O)c1nn[nH]c1S(=O)(=O)c1cccc(C#CCC(C)C)c1` [Example 375, Ethyl 5-(3-(4-methylpent-1-ynyl)phenylsulfonyl)-1H-1,2,3-triazole-4-carboxylate], > 1 µM.
For `CCOC(=O)c1nn[nH]c1Oc1cccc(C#CCC(C)(C)F)c1` [Example 377, Ethyl 5-(3-(4-fluoro-4-methylpent-1-ynyl)phenoxy)-1H-1,2,3-triazole-4-carboxylate] the value was > 1 µM.
With `CC(C)(F)CC#Cc1cccc(Oc2[nH]nnc2C(=O)O)c1` [Example 378, 5-(3-(4-Fluoro-4-methylpent-1-ynyl)phenoxy)-1H-1,2,3-triazole-4-carboxylic Acid], the IC50 was found to be 0.04 µM.

Broadly, the IC50 is the concentration at which inhibition is half-maximal.

The record behind these values is US11504367B2, “Compounds and methods for treating oxalate-related diseases” (OxaluRx, Inc., priority 2019, dated 2022).
